We go through seven compounds from article PMC9137552, “Structural Characterization of Two Short Unspecific Peroxygenases: Two Different Dimeric Arrangements” (Antioxidants, 2022).

Assay [1] relates to T1, rMroUPO.
T1 construct: gene MroUPO; mature enzyme without signal peptide, initial Met added, no tag, codon-optimised in pET23a, E. coli BL21, non-glycosylated; homodimer (C227-C227' disulfide), monomer 26-27 kDa; short UPO
The assay is described as follows: initial rates, absorbance at […] nm, Michaelis-Menten fit. It counts as biochemical, Marasmius rotula. As to conditions: 5 mM H2O2; 0.1 M acetate pH 5.0.

Assay [2] has as its system T2, rCviUPO.
T2 construct: gene CviUPO
As to conditions: read-out: K228stop; K228stop variant; 1 mM H2O2; 0.1 M acetate pH 4.0.

Assay [3] has as its system T2, rCviUPO. As to conditions: read-out: C235A; 1 mM H2O2; 0.1 M acetate pH 4.0.
The subject of assay [4] is T3, rCviUPO.
T3 construct: gene CviUPO; mature enzyme without signal peptide, initial Met added, no tag, codon-optimised in pET23a, E. coli BL21, non-glycosylated; homodimer, monomer 26-27 kDa; known only as recombinant enzyme; short UPO
Kind of assay: initial rates, absorbance at […] nm, Michaelis-Menten fit. It counts as biochemical, Collariella virescens. The following applies: K228stop variant; 1 mM H2O2; 0.1 M tartrate pH 5.0.

The test system of assay [5] is T1, rMroUPO. The assay is described as above. It counts as biochemical, Marasmius rotula. The following applies: 5 mM H2O2; 0.1 M tartrate pH 4.0.
For assay [6], the system named is T3, rCviUPO. The assay is described as above. It counts as biochemical, Collariella virescens. The following applies: 1 mM H2O2; 0.1 M tartrate pH 5.0; read-out: C235A.
Assay [7] concerns T3, rCviUPO. Described as above. It counts as biochemical, Collariella virescens. As to conditions: 1 mM H2O2; 0.1 M tartrate pH 5.0.
Assay [8] relates to T3, rCviUPO. The description is as above. Format: biochemical, Collariella virescens. As to conditions: 1 mM H2O2; 0.1 M acetate pH 3.
The test system of assay [9] is T3, rCviUPO. The description is as above. It counts as biochemical, Collariella virescens. As to conditions: 1 mM H2O2; pH 4.0 (table note; methods text gives pH 3 or 5); read-out: C235A.
Assay [10] concerns T1, rMroUPO. The assay is described as above. It counts as biochemical, Marasmius rotula. As to conditions: 5 mM H2O2; 0.1 M acetate pH 4.6.
Assay [11] concerns T3, rCviUPO. The description is as above. As to conditions: K228stop variant; 1 mM H2O2; pH 4.0 (table note; methods text gives pH 3 or 5). Format: biochemical, Collariella virescens.
Assay [12] addresses rCviUPO C235A variant (Collariella virescens). The assay is described as follows: AUC + other: dynamic light scattering; sedimentation velocity, c(s) distributions (SEDFIT); diffusion coefficients from parallel DLS; molecular mass by the Svedberg equation.
Assay [13] has as its target rCviUPO K228stop variant (C-terminal tail deletion) (Collariella virescens). The description is as above.
Assay [14] addresses recombinant unspecific peroxygenase from Collariella virescens (rCviUPO), native (nonmutated) (Collariella virescens). Described as above.
The target is the same in assay [15]. The assay is described as follows: SEC; Superdex 75, isocratic elution with 10 mM Tris (pH 7.4), 0.15 M NaCl; masses against standards, compared with SDS-PAGE with mercaptoethanol; P201stop analysed during its last purification step. (In general: SEC sorts molecules by how far they enter the pores of the column.)
Assay [16] addresses recombinant unspecific peroxygenase from Marasmius rotula (rMroUPO), native (nonmutated) (Marasmius rotula). The description is as above.

Where two headings read alike, the source gives them in different places.

Take `CCn1c(=NN=c2sc3cc(S(=O)(=O)O)ccc3n2CC)sc2cc(S(=O)(=O)O)ccc21` [ABTS, 2,2′-azino-bis(3-ethylbenzothiazoline-6-sulfonic acid)]: the Km in [1] amounted to 246 ± 3 µM; in [2], 110 ± 15 µM; in assay [3], 87 ± 7 µM.
On to `COc1cccc(OC)c1O` [DMP, 2,6-dimethoxyphenol], for which the Km was determined as 3720 ± 250 µM in assay [4], 206 ± 38 µM in assay [5], 4500 ± 424 µM in assay [6] and 4930 ± 470 µM in assay [7].
For `COc1ccc(CO)cc1OC` [Veratryl alcohol], the Km amounted to 2940 ± 160 µM in [8], 7240 ± 820 µM in assay [9], 54.2 ± 16.7 µM in assay [10] and 55300 µM in assay [11].
As usually defined, the stoichiometry N is the number of molecules, sites or subunits per partner or assembly. In the case of rCviUPO C235A variant (enzyme), the stoichiometry N in [12] is 2.
As to “rCviUPO K228stop variant (C-terminal tail deletion) (domain or fragment)”, the stoichiometry N in assay [13] turned out to be 2.
Take “recombinant unspecific peroxygenase from Collariella virescens (rCviUPO), native (nonmutated) (enzyme)”: the stoichiometry N in assay [14] and in [15] was 2 throughout.
As for “recombinant unspecific peroxygenase from Marasmius rotula (rMroUPO), native (nonmutated) (enzyme)”, the stoichiometry N in assay [16] was 2.
